The values that follow come from PMC4211885 (PLoS ONE, 2014).

Entries after “also recorded” stand apart in the source; their conditions may differ. Where two headings read alike, the source gives them in different places.

Data set [1] has as its target T1, OA/TAMac receptor (Macrobrachium rosenbergii, UniProt D9U2B9). As to the kind of experiment: Agonist-evoked direct-current (ID) in Xenopus oocytes injected with OA/TAMac cRNA, two-electrode voltage clamp. The conditions noted are these: for Amplitude of agonist evoked ID relative to octopamine-evoked current: all agonists at 50 µM, within single oocytes. It counts as cell-based. From the text:
We used Xenopus oocytes to express the prawn OA/TAMac receptor by injection of synthetic cRNA. The injection of foreign RNA into Xenopus oocytes typically induces the expression of multiple native chloride and potassium channels. Ligand evoked currents resulting from modulation of these channels have been used extensively in the characterization of heterologously expressed GPCRs. Oocytes are typically voltage clamped at a constant membrane potential around −60 mV and deviations in holding potential are measured. We refer to currents measured in this way as direct-currents (ID) (after) in order to distinguish them from the voltage-evoked transient current (ICl-T) described later.
Both flow rate and pulse duration were precisely controlled and comparisons were made relative to currents within single oocytes.
To characterize the dose dependence of ID, series of single transmitters were applied to different individual oocytes injected with OA/TAMac. Oocytes were voltage clamped at −60 mV and tyramine, (+/−)-octopamine, or dopamine were applied using 30 second perfusion-switched applications (see methods for more details).
(§1) Recordings were performed 1–3 days post-injection at room temperature (20–22°C). Currents were recorded under two-electrode voltage clamp using an Axoclamp 900a amplifier (Molecular Devices LLC, CA USA). A digidata 1440a analog to digital converter was used in conjunction with pCLAMP 10 software (Molecular Devices) for data acquisition and to generate voltage commands. For each step protocol or chemical application data were typically sampled at 5 KHz and filtered digitally at 1 KHz. For the duration of each experiment the current was also continuously sampled at 1 kHz using a separate minidigi 1A digitizer (Molecular Devices). Glass microelectrodes were pulled from filamented 1.2 mm thin wall borosilicate glass (World Precision Instruments, Sarasota, FL) using a Sutter Instruments P-97 puller. They were filled with 3 M KCl and had resistances of 0.8–2.0 MΩ. A silver chloride pellet immersed in 3 M KCl and connected to the bath via a 3% agar bridge made with 3 M KCl was used as the reference electrode.
Oocytes were continuously perfused at 1.5 mL/min either with ND 96 or test compounds dissolved in ND 96. Two types of application were used over the course of this study, a perfusion-switch or a focal application. In all cases solutions were delivered through a gravity fed system and switched using a computer controlled bank of pinch valves. Flow rate was regulated with a manual screw-type pinch valve.
For focal application a triple barrel pipette with three parallel independently switched channels was positioned about 1 mm from the surface of the oocyte, up-stream of a cross flow, at an approximate angle of 45 degrees (schematic shown in Fig. S8). Drugs were focally applied during continuous perfusion with ND 96.
(§2) In experiments where more than three drugs or concentrations were tested a precisely controlled 30 s perfusion-switch was used. Up to eight channels were connected to the bath via an 8-way manifold. There was an approximately 6–7 s delay for solutions to traverse the dead volume between the manifold and the bath.
Background: Two-electrode voltage clamp holds a large cell at a set potential and records current.

The test system of data set [2] is CFTR conductance (intracellular cAMP). As to the kind of experiment: cAMP detection by whole oocyte (CFTR) conductance in oocytes co-expressing CFTR and OA/TAMac. It is filed as cell-based, Xenopus laevis. The conditions noted are these: FSK at 50 µM. From the text: It is also unlikely that the effects of tyramine at high concentration result from an increase in cAMP. It is common that octopaminergic GPCRs can couple through the canonical Gαs/cAMP pathway so we used co-expression of the Cystic Fibrosis Trans-membrane Conductance Regulator (CFTR) as a means of testing for increases in cAMP (see methods for more detail) [60]–[63].
As a means of detecting rises in intracellular cAMP levels we tested oocytes co-expressing the CFTR channel and OA/TAMac. Heterologously expressed CFTR can be used as an extremely sensitive assay for intracellular cAMP in Xenopus oocytes. CFTR mediates a chloride-selective leak conductance that is activated by increases in intracellular cAMP [63]. Activity of CFTR can thus be used to indicate whether changes in cAMP correspond with ligand application [60]–[62]. Whole oocyte conductance was monitored using a step protocol and calculated from I/V plots. The command voltage was stepped from the holding potential to various levels (−10 mV to −55 mV in −5 mV increments) for 150 ms. The steady state current during each step was plotted against the command voltage and fit to a line using Clampfit 10 software (Fig. S7A). The slope of the line was taken as the conductance. To minimize the magnitude of the holding current between drug applications, oocytes expressing CFTR were typically held at −20 mV which is close to the typical chloride reversal potential. This was confirmed by the fact that the direct-current evoked by forskolin could appear inward or outward at −20 mV. Oocytes expressing either OA/TAMac alone or OA/TAMac and CFTR typically had resting membrane potentials between −20 mV and −30 mV (mean of −26±5 mV calculated from oocytes in Fig. S7) due to increased expression of endogenous chloride currents.
(A) The measurement of whole oocyte conductance was done by plotting steady state current against the command voltage recorded during a step protocol. It is defined as the slope (I/V) of the linear least squares regression line. In the example shown tyramine (TA) causes no apparent change in whole oocyte conductance. Octopamine (OA) causes a small change compared to the adenylate cyclase activator forskolin (FSK). […] These cumulative data are from 20 OA/TAMac and CFTR-injected oocytes and 6 OA/TAMac -only injected oocytes. Conductance was measured as shown in A. Not all compounds were tested in all oocytes. Each response is treated as an independent sample. Concentrations of OA and TA were at 100 µM or 1000 µM, FSK was at 50 µM. Some points obtained at 3 minutes were grouped with the 4 minute responses. (C) The change in conductance (Δg) occurring within oocytes as determined by the difference between baseline and the indicated time points post-application of compound. […]

The target of data set [3] is T1, OA/TAMac receptor. As to the kind of experiment: Antagonist block of ID evoked by 50 µM octopamine in OA/TAMac-injected oocytes. It counts as cell-based. As to the method:
as §1, §2

The subject of a further data set is Uninjected oocytes. As to the kind of experiment: Direct-current response of uninjected oocytes (control). It is filed as cell-based, Xenopus laevis. The conditions noted are these: n = 5. The procedure:
We first tested receptor-injected oocytes for the occurrence of a response to biogenic amines. Applications of tyramine, octopamine, or dopamine produced an inward ID, typically ranging between 50 nA and 500 nA, under a constant holding potential of −60 mV. […] The amplitude of tyramine evoked ID at concentrations below 10 µM was greater than octopamine or dopamine within the same oocyte (Figs. 2A and S2). […] Instead it would rise and then begin to decline prior to the removal of agonist (dotted line). However, at high concentrations, above 100 µM, ID appeared to approach a stable plateau (Fig. 2B).
as §1
Supplementary file pone.0111314.s001.tif: Figure S1 Direct-current (ID) responses are specifically evoked by agonists in oocytes injected with OA/TAMac only. […] The trace is representative of an experimental set of 5 oocytes. Additional uninjected oocytes were tested with various experimental sets throughout the course of this study. (B) A typical preliminary test of agonist sensitivity. Injection of OA/TAMac cRNA alone is sufficient to confer sensitivity to OA. […] Applications are approximately 30 seconds in the upper trace. (C) The response of clonidine (CN), synephrine (SN), and OA within a single OA/TAMac injected oocyte. […] All drugs are applied for 30 seconds each as indicated by black rectangles. Agonist evoked currents are measured within oocytes relative to the octopamine response at 50 µM. The comparison is made to OA because the amplitude of the tyramine response becomes small at concentrations above 10 µM. This is due to a mechanistically undefined process not seen with any other agonist we tested. Note that TA is the first compound applied to a naïve oocyte in this example. […] (TIF) Click here for additional data file.

Data set [4] can be described thus: Solubility limit in ND 96 when preparing test solutions. It counts as physicochemical. The conditions noted are these: ND 96, from methanol stock.
Procedure: Compounds were obtained from Sigma and dissolved in ND96 or calcium free ND 96 (96 mM NaCl, 2 mM KCl, 5 mM MgCl2, 0.1 mM EGTA, and 5 mM HEPES, pH 7.6), unless stated otherwise. […] SQ-22536 was prepared as a 0.1 M stock in water. Yohimbine was dissolved in acidic ND 96 to 1 mM, before being serially diluted at pH 7.6. Forskolin was prepared as a 0.05 M stock in DMSO. Thapsigargin was prepared as a 0.01 M stock in DMSO. (−)-Quinpirol was made as a 0.01 M stock in ND96 and stored in aliquots at −20°C. […] For all antagonists serial dilutions were made in ND 96 containing 50 µM octopamine and applied as a mixture.
The mark [5] stands for this setting: antagonist applied as mixture with 50 µM octopamine, 30 second perfusion-switch, −60 mV, estimated graphically, read-out: IC50 for block of octopamine-evoked ID.

T1 sequence (D9U2B9 entry or part of it): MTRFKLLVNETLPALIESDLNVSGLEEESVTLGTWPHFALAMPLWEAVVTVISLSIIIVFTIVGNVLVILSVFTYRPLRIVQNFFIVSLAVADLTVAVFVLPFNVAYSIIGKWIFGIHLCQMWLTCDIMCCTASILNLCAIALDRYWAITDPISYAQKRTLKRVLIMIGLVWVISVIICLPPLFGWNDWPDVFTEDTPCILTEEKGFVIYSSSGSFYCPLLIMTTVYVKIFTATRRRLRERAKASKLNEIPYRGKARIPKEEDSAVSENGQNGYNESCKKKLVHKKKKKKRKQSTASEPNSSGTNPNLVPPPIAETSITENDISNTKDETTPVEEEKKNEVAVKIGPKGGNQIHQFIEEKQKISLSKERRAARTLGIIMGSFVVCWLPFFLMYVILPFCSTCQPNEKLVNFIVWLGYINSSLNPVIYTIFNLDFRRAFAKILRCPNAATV

Take `CNCC(O)c1ccc(O)cc1` (racemic) [(+/−)-synephrine]: the “Amplitude of agonist evoked ID relative to octopamine-evoked current” value on OA/TAMac receptor [1] (30 second perfusion-switch) is “smaller currents than octopamine or β-PEA”.

On to `CCCN1CCC[C@@H]2Cc3n[nH]cc3C[C@H]21` [(−)-quinpirole], for which the “Amplitude of agonist evoked ID relative to octopamine-evoked current” value at OA/TAMac receptor [1] (30 second perfusion-switch) is “smaller currents than octopamine or β-PEA”; at OA/TAMac receptor [1] (30 second perfusion-switch, listed as quinpirole), “produces a response in injected oocytes and not in uninjected oocytes”.

With `Clc1cccc(Cl)c1N=C1NCCN1` [Clonidine], on OA/TAMac receptor [1] (30 second perfusion-switch), the “Amplitude of agonist evoked ID relative to octopamine-evoked current” value is reported as “no visible response”. For the molecule `C=C[C@@]1(C)CC(=O)[C@]2(O)[C@@]3(C)[C@@H](O)CCC(C)(C)[C@@H]3[C@H](O)[C@H](OC(C)=O)[C@@]2(C)O1` [FSK, forskolin], in data set [2], the “Evoked whole oocyte conductance” value was “significantly larger conductance than baseline or TA”.

In general, IC50 refers to the concentration needed to halve the response being measured. With `CN1CCc2cc(Cl)c(O)cc2[C@@H](c2ccccc2)C1` [SCH-23390], the IC50 on OA/TAMac receptor [3] (setting [5]) was about 9.6 µM. With `Nc1ncnc2c1ncn2C1CCCO1` (stereo not drawn) [SQ-22536], on OA/TAMac receptor [1] (tyramine n = 3, octopamine n = 6), the “Effect of adenylate cyclase inhibitor on amine evoked ID” value was “no apparent effect; also recorded: no obvious effect”. Turning to `NCCc1ccc(O)c(O)c1` [dopamine], the “ID response amplitude (mean ± s.d.)” value at OA/TAMac receptor [1] (10 µM, 10 second focal application, −60 mV, OA/TAMac and CFTR co-injected, n = 11 oocytes) came out at 46±31 nA. The EC50 at OA/TAMac receptor [1] (30 second perfusion-switch, voltage clamped at −60 mV, approximate, estimated graphically from plot, read-out: EC50 of transmitter evoked direct-current (ID), normalized I/Imax) is about 63 µM. On OA/TAMac receptor [1] (30 second perfusion-switched applications, −60 mV), the “Concentration at which evoked inward currents became visible/apparent” value is “around 1 µM”. Also, the “Spearman rank-order correlation (rS) between rise rate and peak amplitude of evoked ID” value on OA/TAMac receptor [1] (all responses of the concentration series of Figure 3C) stood at 0.97. Also, the “Response of uninjected oocytes” value in the data set on Uninjected oocytes is reported as “no response”; in the data set on Uninjected oocytes (listed as DA) it was “do not respond”. For `NC1=NCC2c3ccccc3Cc3ccccc3N12` (stereo not drawn) [epinastine], on OA/TAMac receptor [3] (setting [5]), the IC50 was about 3.7 µM.

Take `O=C(CCCN1CCC(O)(c2ccc(Cl)cc2)CC1)c1ccc(F)cc1` [haloperidol]: in data set [4], the Limit of solubility entry was “could not be tested at 100 µM because of its limit of solubility”.

For `NCCc1c[nH]cn1` [histamine], the “Amplitude of agonist evoked ID relative to octopamine-evoked current” value is “no response or minimal response” at OA/TAMac receptor [1] (30 second perfusion-switch) and “minimal response” on OA/TAMac receptor [1] (30 second perfusion-switch, listed as Histamine). For the molecule `Cc1ccc(N(CC2=NCCN2)c2cccc(O)c2)cc1` [phentolamine], the IC50 at OA/TAMac receptor [3] (setting [5]) was about 0.98 µM.

As for `C/C=C(/C)C(=O)O[C@H]1C(C)=C2[C@H]([C@@H]1OC(=O)CCCCCCC)[C@@](C)(OC(C)=O)C[C@H](OC(=O)CCC)[C@@]1(O)[C@H]2OC(=O)[C@@]1(C)O` [thapsigargin], the “Effect of pre-incubation on tyramine-induced ID waveform” value on OA/TAMac receptor [1] (1.7 µM in calcium-free ND 96 for three hours, n = 2) was “no apparent effect on the tyramine induced plateau”. At OA/TAMac receptor [3], `COC(=O)[C@@H]1[C@H]2C[C@H]3c4[nH]c5ccccc5c4CCN3C[C@@H]2CC[C@@H]1O` [yohimbine] had a 50% inhibitory concentration (IC50) of about 0.48 µM.

Take `NCCc1ccccc1` [β-phenylethylamine]: the “Amplitude of agonist evoked ID relative to octopamine-evoked current” value on OA/TAMac receptor [1] (30 second perfusion-switch) is “comparable or greater amplitude than octopamine”.
